Source: ChEMBL document CHEMBL4130353, “2-Substituted 3,7,8-trimethylnaphtho[1,2-b]furan-4,5-diones as specific L-shaped NQO1-mediated redox modulators for the treatment of non-small cell lung cancer” (Eur J Med Chem, 2017)
Activity calls are given as the source filed them. The rule behind the calls is not given here.

Assays:
[1] = Effective permeability of the compound at pH 7.4 by PAMPA assay; format: ADME; details: read-out: Peff
A549/TR = test: Cytotoxicity against human A549/TR cells assessed as cell growth inhibition preincubated for 24 hrs followed by compound washout measured after 72 hrs by MTT assay; format: functional, cell-based
A549 [2] = test: Induction of apoptosis in human A549 cells assessed as increase in cleaved PARP expression at 10 uM after 24 hrs in presence of DIC by Western blot analysis; format: functional, cell-based
MCF7 = test: Cytotoxicity against human MCF7 cells assessed as cell growth inhibition preincubated for 24 hrs followed by compound washout measured after 72 hrs by MTT assay; format: functional, cell-based
NCI-H1299 = test: Cytotoxicity against human NCI-H1299 cells assessed as assessed as cell growth inhibition for 24 hrs followed by compound washout measured after 72 hrs by MTT assay; format: functional, cell-based
[3] = biological target: NAD(P)H dehydrogenase [quinone] 1 (Homo sapiens) (UniProt P15559); test: Substrate activity at NQO1 in human A549 cells assessed as induction of ROS-induced JNK phosphorylation at 1 uM after 3 hrs by Western blot analysis relative to control; format: cell-based
Sequence of NAD(P)H dehydrogenase [quinone] 1 (Homo sapiens) (P15559 whole entry): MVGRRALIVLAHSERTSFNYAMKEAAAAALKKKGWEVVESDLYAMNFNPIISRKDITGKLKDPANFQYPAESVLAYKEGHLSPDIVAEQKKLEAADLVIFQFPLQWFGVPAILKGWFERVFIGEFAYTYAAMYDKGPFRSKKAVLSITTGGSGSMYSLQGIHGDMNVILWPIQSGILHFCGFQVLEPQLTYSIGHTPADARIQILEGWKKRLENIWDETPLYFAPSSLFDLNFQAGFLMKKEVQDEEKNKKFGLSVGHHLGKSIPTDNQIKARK

[4] = biological target: NAD(P)H dehydrogenase [quinone] 1 (Homo sapiens) (UniProt P15559); test: Substrate activity at NQO1 in human A549 cells assessed as induction of ROS-induced ERK phosphorylation at 10 uM after 3 hrs by Western blot analysis relative to control; format: cell-based
[5] = biological target: NAD(P)H dehydrogenase [quinone] 1 (Homo sapiens) (UniProt P15559); test: Substrate activity at NQO1 in human A549 cells assessed as induction of ROS-induced p38 phosphorylation at T180/Y182 at 1 uM after 3 hrs by Western blot analysis relative to control; format: cell-based
A549 [6] = test: Reduction of intracellular GSH levels in human A549 cells xenografted in athymic nude mouse at 15 to 30 mg/kg, iv administered every other day for 3 weeks by fluorescence-based assay; format: functional, organism-based
[7] = biological target: NAD(P)H dehydrogenase [quinone] 1 (Homo sapiens) (UniProt P15559); test: Substrate activity at NQO1 in human A549 cells assessed as induction of ROS-induced p38 phosphorylation at T180/Y182 at 10 uM after 3 hrs by Western blot analysis relative to control; format: cell-based
[8] = biological target: NAD(P)H dehydrogenase [quinone] 1 (Homo sapiens) (UniProt P15559); test: Substrate activity at NQO1 in human A549 cells assessed as induction of ROS-induced Akt phosphorylation at […] at 10 uM after 3 hrs in presence of DIC by Western blot analysis relative to control; format: cell-based
Homo sapiens = species on record: Homo sapiens; test: Selectivity ratio for substrate activity at recombinant human NQO1 to substrate activity at human CPR
[9] = biological target: NAD(P)H dehydrogenase [quinone] 1 (Homo sapiens) (UniProt P15559); test: Substrate activity at NQO1 in human A549 cells assessed as induction of enzyme-catalyzed lipid peroxidation by measuring MDA equivalents per protein at 10 uM after 24 hrs by TBARS assay; format: cell-based
A549 [10] = test: Effect on total AKT protein levels in human A549 cells at 5 uM after 3 hrs by Western blot analysis relative to control; format: ADME, cell-based; details: a549, 3 h
[11] = biological target: NAD(P)H dehydrogenase [quinone] 1 (Homo sapiens) (UniProt P15559); test: Substrate activity at NQO1 in human A549 cells assessed as induction of ROS-induced Akt phosphorylation at S473 after 3 hrs by Western blot analysis; format: cell-based
A549 [12] = test: Effect on total p38 protein levels in human A549 cells at 10 uM after 3 hrs by Western blot analysis relative to control; format: ADME, cell-based; details: a549, 3 h
[13] = biological target: NAD(P)H dehydrogenase [quinone] 1 (Homo sapiens) (UniProt P15559); test: Substrate activity at NQO1 in human A549 cells assessed as induction of ROS-induced p38 phosphorylation at T180/Y182 at 10 uM after 3 hrs in presence of DIC by Western blot analysis relative to control; format: cell-based
[14] = biological target: NAD(P)H dehydrogenase [quinone] 1 (Homo sapiens) (UniProt P15559); test: Substrate activity at NQO1 in human A549 cells assessed as induction of ROS-induced ERK phosphorylation at 5 uM after 3 hrs by Western blot analysis relative to control; format: cell-based
Mus musculus = test: Toxicity in athymic nude mouse xenografted with human A549 cells assessed as effect on body weight at 50 mg/kg, iv administered every other day for 3 weeks; format: organism-based; details: in vivo, 504 h
A549 [15] = test: Effect on total AKT protein levels in human A549 cells at 10 uM after 3 hrs in presence of NAC by Western blot analysis relative to control; format: ADME, cell-based; details: a549, 3 h
A549 [16] = test: Effect on total ERK protein levels in human A549 cells at 5 uM after 3 hrs by Western blot analysis relative to control; format: ADME, cell-based; details: a549, 3 h
[17] = biological target: NAD(P)H dehydrogenase [quinone] 1 (Homo sapiens) (UniProt P15559); test: Substrate activity at NQO1 in human A549 cells assessed as induction of ROS-induced JNK phosphorylation at 10 uM after 3 hrs in presence of NAC by Western blot analysis relative to control; format: cell-based
A549 [18] = test: Cytotoxicity against human A549 cells assessed as cell growth inhibition preincubated for 24 hrs followed by compound washout measured after 72 hrs in presence of NQO1 inhibitor DIC by MTT assay; format: functional, cell-based
[19] = Lipophilicity, log D of the compound at pH 7.4; format: physicochemical; details: buffer
[20] = biological target: NAD(P)H dehydrogenase [quinone] 1 (Homo sapiens) (UniProt P15559); test: Substrate activity at NQO1 in human A549 cells assessed as induction of ROS-induced ERK phosphorylation at 1 uM after 3 hrs by Western blot analysis relative to control; format: cell-based
A549 [21] = test: Effect on total ERK protein levels in human A549 cells at 1 uM after 3 hrs by Western blot analysis relative to control; format: ADME, cell-based; details: a549, 3 h
A549 [22] = test: Effect on total ERK protein levels in human A549 cells at 10 uM after 3 hrs by Western blot analysis relative to control; format: ADME, cell-based; details: a549, 3 h
[23] = biological target: T1, NADPH--cytochrome P450 reductase (Homo sapiens, UniProt P16435); test: Substrate activity at human CPR expressed in baculovirus expression system assessed as reduction rate by measuring umol of NADPH utilized per umol of enzyme at 10 uM preincubated for 3 mins followed by NADPH addition measured at 2 secs interval for 5 mins by UV-Vis spectroscopy; format: ADME
T1 sequence (P16435 whole entry): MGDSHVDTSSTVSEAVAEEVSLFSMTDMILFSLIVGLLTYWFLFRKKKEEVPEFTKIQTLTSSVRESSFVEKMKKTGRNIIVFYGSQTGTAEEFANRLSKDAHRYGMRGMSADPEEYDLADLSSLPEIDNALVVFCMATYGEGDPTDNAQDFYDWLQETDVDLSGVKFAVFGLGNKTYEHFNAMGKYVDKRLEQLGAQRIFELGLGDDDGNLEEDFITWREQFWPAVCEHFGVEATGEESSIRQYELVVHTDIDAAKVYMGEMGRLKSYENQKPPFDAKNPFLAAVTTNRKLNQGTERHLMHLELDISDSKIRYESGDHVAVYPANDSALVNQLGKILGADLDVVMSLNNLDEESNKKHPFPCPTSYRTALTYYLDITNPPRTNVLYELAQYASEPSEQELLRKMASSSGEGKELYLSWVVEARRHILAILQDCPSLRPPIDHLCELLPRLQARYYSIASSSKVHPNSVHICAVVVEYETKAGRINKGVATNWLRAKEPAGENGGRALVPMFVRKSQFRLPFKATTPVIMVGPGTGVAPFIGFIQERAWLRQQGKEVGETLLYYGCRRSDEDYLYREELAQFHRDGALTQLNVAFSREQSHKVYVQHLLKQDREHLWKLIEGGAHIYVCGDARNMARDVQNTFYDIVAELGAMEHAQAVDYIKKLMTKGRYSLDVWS

HCT-116 = test: Cytotoxicity against human HCT116 cells assessed as cell growth inhibition preincubated for 24 hrs followed by compound washout measured after 72 hrs by MTT assay; format: functional, cell-based

Cc1cc2c(cc1C)-c1oc(CNc3ccc(CN4CCOCC4)cc3)c(C)c1C(=O)C2=O
Papp [1]: 46.5 ×10⁻⁶ cm/s | IC50 (A549/TR): 2.2 µM | Activity (A549 [2]): inactive | IC50 (MCF7): 4.7 µM | IC50 (NCI-H1299): 3.8 µM | fold change (FC) [3]: 17.4 | fold change (FC) [4]: 2.49 | fold change (FC) [5]: 11.1 | Activity (A549 [6]): Active | fold change (FC) [7]: 16.4 | fold change (FC) [8]: 1.96 | Selectivity ratio (Homo sapiens): 20.8 | Activity [9]: 18.6 nmol/mg | fold change (FC) (A549 [10]): 1.14 | Activity [11]: Dose-dependent effect | fold change (FC) (A549 [12]): 1.1 | fold change (FC) [13]: 9.2 | fold change (FC) [14]: 2.41 | Activity (Mus musculus): Non-Toxic | fold change (FC) (A549 [15]): 1.07 | fold change (FC) (A549 [16]): 0.97 | fold change (FC) [17]: 12.5 | IC50 (A549 [18]): > 50 µM | logD [19]: 3.1 | fold change (FC) [20]: 2 | fold change (FC) (A549 [21]): 1.01 | fold change (FC) (A549 [22]): 1.02 | Activity [23]: 73 µmol NADPH/min/µmol enzyme | IC50 (HCT-116): 4.9 µM
